From patent US20120329787A1, “FUNGICIDAL PYRANONES AND OXAZINONES” (E.I. DU PONT DE NEMOURS AND COMPANY, priority 2011, published 2012)

What was measured:
Type in all cases: in vivo
Rhizoctonia solani = experiment: Test D: turf brown patch, spray on creeping bent grass seedlings the day before inoculation; conditions: 200 ppm test suspension
Excerpt: General protocol for preparing test suspensions for Tests A-I: the test compounds were first dissolved in acetone in an amount equal to 3% of the final volume and then suspended at the desired concentration (in ppm) in acetone and purified water (50/50 mix by volume) containing 250 ppm of the surfactant Trem® 014 (polyhydric alcohol esters). The resulting test suspensions were then used in Tests A-I. Spraying a 200 ppm test suspension to the point of run-off on the test plants was the equivalent of a rate of 500 g/ha. […] (An asterisk “*” next to the rating value indicates a 40 ppm test suspension was used.) The test suspension was sprayed to the point of run-off on creeping bent grass (Agrostis sp.) seedlings. The following day, the seedlings were inoculated with a bran and mycelial slurry of Rhizoctonia solani (the causal agent of turf brown patch) and incubated in a saturated atmosphere at 27° C. for 48 h, and then moved to a growth chamber at 27° C. for 3 days, after which time disease ratings were made. […] A dash (-) indicates no test results. All results are for 200 ppm except where followed by an asterisk “*”, which indicates a 40 ppm.

Phytophthora infestans = conditions: 200 ppm test suspension; tomato seedlings
Alternaria solani = experiment: Test B: tomato early blight, spray on tomato seedlings the day before inoculation; conditions: 200 ppm test suspension
Method in brief: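 Visual blight ratings were made after 48 h saturated incubation at 27 °C plus 5 days at 20 °C, following A. solani spore inoculation one day after run-off spraying at 200 ppm (or 40 ppm where marked).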

[1] = system: Erysiphe graminis f. sp. tritici; experiment: Test I: wheat powdery mildew, spray on wheat seedlings the day before inoculation; conditions: 200 ppm test suspension
Method in brief: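 Protectant test: spore-dust inoculation one day after run-off spraying, then 7 days in a 20° C growth chamber before visual scoring. Suspensions were 200 ppm, or 40 ppm where flagged, in 50/50 acetone-water containing 250 ppm Trem 014.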

[2] = system: Puccinia recondita f. sp. tritici; experiment: Test H: wheat leaf rust, spray on wheat seedlings the day before inoculation; conditions: 200 ppm test suspension, sprayed before inoculation
Method in brief: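 Preventive test: one day after run-off spraying of seedlings at 200 ppm (some at 40 ppm), Puccinia recondita spores were applied. Disease was scored visually after 24 h saturated humidity plus 6 days, both at 20 °C.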

Botrytis cinerea = experiment: Test A: tomato Botrytis, spray on tomato seedlings the day before inoculation; conditions: 200 ppm test suspension
Method in brief: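 Visual disease rating after Botrytis cinerea spore inoculation one day post-treatment, incubation 48 h at 20 °C in saturated atmosphere then 3 days at 24 °C. Preventive foliar spray to run-off on tomato seedlings at 200 ppm (500 g/ha equivalent) or 40 ppm, acetone/water with surfactant.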

Septoria nodorum = experiment: Test E: Septoria glume blotch, spray on wheat seedlings the day before inoculation; conditions: 200 ppm test suspension
Method in brief: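 Wheat seedlings received a run-off spray of test suspension, then were inoculated with Septoria nodorum one day later. Suspensions: 200 ppm (≈500 g/ha) or, where asterisked, 40 ppm, in 50/50 acetone/water containing 250 ppm Trem 014.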

Septoria tritici = experiment: Test F: wheat leaf blotch, spray on wheat seedlings the day before inoculation; conditions: 200 ppm test suspension
Method in brief: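 Protectant test: Septoria tritici spores inoculated one day after run-off spraying of test suspension (200 ppm, equal to 500 g/ha, or 40 ppm; acetone/water, 250 ppm Trem 014). Plants kept 48 h at 24° C in saturated air and 19 further days at 20° C, then disease scored visually.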

| SMILES | Test D rating (100 = 100% disease control, 0 = no disease control) (Rhizoctonia solani) [%] | Test C rating (100 = 100% disease control, 0 = no disease control) (Phytophthora infestans) [%] | Test B rating (100 = 100% disease control, 0 = no disease control) (Alternaria solani) [%] | Test I rating (100 = 100% disease control, 0 = no disease control) [1] [%] | Test H rating (100 = 100% disease control, 0 = no disease control) [2] [%] | Test A rating (100 = 100% disease control, 0 = no disease control) (Botrytis cinerea) [%] | Test E rating (100 = 100% disease control, 0 = no disease control) (Septoria nodorum) [%] | Test F rating (100 = 100% disease control, 0 = no disease control) (Septoria tritici) [%] |
| --- | --- | --- | --- | --- | --- | --- | --- | --- |
| COc1cc(OC)cc(-c2c(-c3ccccc3F)noc(=O)c2-c2c(F)cccc2F)c1 [Compound 22] | 8 | 0 | 0 | 0 | 0 | 0 | 0 | 0 |
| Cc1noc(=O)c(-c2cccc(F)c2)c1-c1c(F)cccc1F [Compound 4] | 0 | 8 |  | 0 | 0 | 0 | 0 | 0 |
| COc1cc(OC)cc(-c2c(-c3ccccc3F)noc(=O)c2-c2ccc(F)cc2F)c1 [Compound 21] | 0 | 0 | 0 | 0 | 0 | 0 | 0 | 0 |
| Cc1noc(=O)c(-c2cccc(F)c2)c1-c1ccccc1 [Compound 1] | 0 | 0 |  | 0 | 0 | 0 | 0 | 37 |
| Cc1noc(=O)c(-c2c(F)cc(F)cc2F)c1-c1ccc(Cl)cc1 [Compound 3] | 78 | 9 | 100 | 99 | 98 | 99 | 0 | 99 |
| Cc1noc(=O)c(-c2ccc(F)cc2Cl)c1-c1ccc(Br)cc1 [Compound 14] | 0 | 0 | 5 | 0 | 0 | 0 | 0 |  |
| Cc1noc(=O)c(-c2c(F)cc(F)cc2F)c1-c1ccc(Cl)c(F)c1 [Compound 16] | 0 | 0 | 0 | 0 | 0 | 0 | 0 | 97 |
| Cc1noc(=O)c(-c2ccc(F)cc2F)c1-c1ccc(Cl)cc1 [Compound 13] | 0 | 0 | 9 | 99 | 91 | 0 | 0 |  |
| Cc1ccc(-c2c(C)noc(=O)c2-c2c(F)cc(F)cc2F)cc1 [Compound 9] | 99 | 0 | 46 | 96 | 96 | 90 | 0 |  |
| Cc1noc(=O)c(-c2c(F)cc(F)cc2F)c1-c1ccc(Br)cc1 [Compound 10] | 90 | 0 | 100 | 99 | 95 | 98 | 0 |  |
| Cc1noc(=O)c(-c2ccc(Cl)cc2)c1-c1c(F)cccc1F [Compound 2] | 0 | 17 |  | 92 | 0 | 47 | 0 | 97 |
| Cc1noc(=O)c(-c2c(F)cc(F)cc2F)c1-c1ccc(F)cc1 [Compound 11] | 26 | 0 | 99 | 100 | 98 | 100 | 64 |  |
